Columns and labels:
[1] = test system: skeletal muscle myosin 2; conditions: cited from earlier work
[2] = test system: myosin 2; conditions: myosin 2 inhibitors, review data; cited from earlier work
[3] = molecular target: platelet myosin 2 (Homo sapiens, UniProt P35579); conditions: cited from earlier work
[4] = vital parameters of live anesthetized rats monitored during isometric force measurement; format: in vivo; conditions: anesthetized rat; for Maximum change of vital parameters (%) blood flow: neck arteries
Procedure: (§1) The maximum isometric force induced by the stimulation was determined after intraperitoneal injection of some of the compounds of the invention. During the measurement, the following parameters of live anesthetized rats were continuously monitored: • a) heart rate • b) blood flow in the neck arteries • c) respiratory frequency • d) blood oxygen saturation ratio

[5] = molecular target: T1, isolated porcine cardiac ventricular myocardium (cardiac) (Sus scrofa, UniProt P79293); test: actomyosin steady state ATPase measurement, cardiac myosin; format: biochemical; conditions: for IC50: concentration required for semi-maximal inhibition of ATPase; for % inhibition. complete cardiac: maximum value of inhibition of ATPase activity; for inhibition at 5 µM: read-out: % inhibition at 5 μM (or 10 μM if racemate) cardiac, 5 μM (10 μM if racemate); for inhibition at 5 µM / inhibition at 50 µM: ATPase activity; for inhibition at 50 µM: read-out: % inhibition at 50 μM (or 100 μM if racemate) cardiac, 50 μM (100 μM if racemate)
T1 construct: isolated porcine cardiac ventricular myocardium (cardiac); from tissue; host or cells: porcine cardiac ventricle
Excerpt: (§2) […]; (ii) the concentration required for semi-maximal inhibition.

[6] = molecular target: isolated smooth muscle myosin (UniProt P10587); format: biochemical, chamois; conditions: for % inhibition at 5 μM (or 10 μM if racemate) Smooth: 5 μM (10 μM if racemate); for % inhibition at 5 μM (or 10 μM if racemate) Smooth / % inhibition at 50 μM (or 100 μM if racemate) Smooth: ATPase activity; for % inhibition at 50 μM (or 100 μM if racemate) Smooth: 50 μM (100 μM if racemate); for % inhibition. complete Smooth: maximum value of inhibition of ATPase activity
[7] = molecular target: isolated smooth muscle myosin (UniProt P10587); format: biochemical, chamois; conditions: concentration required for semi-maximal inhibition of ATPase
Excerpt: (ii) the concentration required for semi-maximal inhibition.

[8] = molecular target: recombinant Dictyostelium miozin (Dictyostelium) (Dictyostelium discoideum, UniProt P08799); test: actomyosin steady state ATPase measurement, Dictyostelium myosin; format: biochemical; conditions: for IC50: concentration required for semi-maximal inhibition of ATPase, read-out: IC50 (μM) Dicty; for inhibition at 5 µM: read-out: % inhibition at 5 μM (or 10 μM if racemate) Dicty; for inhibition at 50 µM: read-out: % inhibition at 50 μM (or 100 μM if racemate) Dicty
Excerpt: as §2

[9] = molecular target: recombinant human non-muscle myosin 2 NM2C (Homo sapiens, UniProt Q7Z406); test: actomyosin steady state ATPase measurement, NM2C; format: biochemical; conditions: for IC50: concentration required for semi-maximal inhibition of ATPase; for inhibition at 5 µM: read-out: % inhibition at 5 μM (or 10 μM if racemate) NM2C, 5 μM (10 μM if racemate); for inhibition at 5 µM / inhibition at 50 µM: ATPase activity; for inhibition at 50 µM: read-out: % inhibition at 50 μM (or 100 μM if racemate) NM2C, 50 μM (100 μM if racemate)
Excerpt: as §2

[10] = molecular target: recombinant human non-muscle myosin 2 NM2A (Homo sapiens, UniProt P35579); test: actomyosin steady state ATPase measurement, NM2A; format: biochemical; conditions: for IC50: concentration required for semi-maximal inhibition of ATPase; for inhibition at 5 µM: read-out: % inhibition at 5 μM (or 10 μM if racemate) NM2A, 5 μM (10 μM if racemate); for inhibition at 5 µM / inhibition at 50 µM: ATPase activity; for inhibition at 50 µM: read-out: % inhibition at 50 μM (or 100 μM if racemate) NM2A, 50 μM (100 μM if racemate)
Excerpt: as §2

[11] = test system: M. quadriceps femoris; test: isometric force measurement of live, anesthetized rat M. quadriceps femoris due to electrical stimulation; format: in vivo
Procedure: as §1, with “saturation ratio Results from live anesthetized rats are summarized in the table below.” for “saturation ratio”

[12] = solubility in PBS in the presence of 1% DMSO; format: physicochemical; conditions: phosphate buffered saline with 1% DMSO, aqueous buffer, kinetic from dmso stock, PBS w/o Mg, Ca
[13] = molecular target: recombinant human non-muscle myosin 2 NM2B (Homo sapiens, UniProt P35580); test: actomyosin steady state ATPase measurement, NM2B; format: biochemical
Excerpt: as §2

[14] = test system: isolated rabbit skeletal muscle myosin (skeletal); test: actomyosin steady state ATPase measurement, skeletal muscle myosin; format: biochemical; conditions: for % inhibition at 5 μM (or 10 μM if racemate) Skeletal: 5 μM (10 μM if racemate); for % inhibition at 5 μM (or 10 μM if racemate) Skeletal / % inhibition at 50 μM (or 100 μM if racemate) Skeletal: ATPase activity; for % inhibition at 50 μM (or 100 μM if racemate) Skeletal: 50 μM (100 μM if racemate); for IC50: concentration required for semi-maximal inhibition of ATPase; for % inhibition. complete Skeletal: maximum value of inhibition of ATPase activity
Excerpt: as §2

[15] = test system: myosin 1, myosin 5, and myosin 10; conditions: cited from earlier work
[16] = maximum value of inhibition of ATPase activity

T1 sequence (P79293 whole entry): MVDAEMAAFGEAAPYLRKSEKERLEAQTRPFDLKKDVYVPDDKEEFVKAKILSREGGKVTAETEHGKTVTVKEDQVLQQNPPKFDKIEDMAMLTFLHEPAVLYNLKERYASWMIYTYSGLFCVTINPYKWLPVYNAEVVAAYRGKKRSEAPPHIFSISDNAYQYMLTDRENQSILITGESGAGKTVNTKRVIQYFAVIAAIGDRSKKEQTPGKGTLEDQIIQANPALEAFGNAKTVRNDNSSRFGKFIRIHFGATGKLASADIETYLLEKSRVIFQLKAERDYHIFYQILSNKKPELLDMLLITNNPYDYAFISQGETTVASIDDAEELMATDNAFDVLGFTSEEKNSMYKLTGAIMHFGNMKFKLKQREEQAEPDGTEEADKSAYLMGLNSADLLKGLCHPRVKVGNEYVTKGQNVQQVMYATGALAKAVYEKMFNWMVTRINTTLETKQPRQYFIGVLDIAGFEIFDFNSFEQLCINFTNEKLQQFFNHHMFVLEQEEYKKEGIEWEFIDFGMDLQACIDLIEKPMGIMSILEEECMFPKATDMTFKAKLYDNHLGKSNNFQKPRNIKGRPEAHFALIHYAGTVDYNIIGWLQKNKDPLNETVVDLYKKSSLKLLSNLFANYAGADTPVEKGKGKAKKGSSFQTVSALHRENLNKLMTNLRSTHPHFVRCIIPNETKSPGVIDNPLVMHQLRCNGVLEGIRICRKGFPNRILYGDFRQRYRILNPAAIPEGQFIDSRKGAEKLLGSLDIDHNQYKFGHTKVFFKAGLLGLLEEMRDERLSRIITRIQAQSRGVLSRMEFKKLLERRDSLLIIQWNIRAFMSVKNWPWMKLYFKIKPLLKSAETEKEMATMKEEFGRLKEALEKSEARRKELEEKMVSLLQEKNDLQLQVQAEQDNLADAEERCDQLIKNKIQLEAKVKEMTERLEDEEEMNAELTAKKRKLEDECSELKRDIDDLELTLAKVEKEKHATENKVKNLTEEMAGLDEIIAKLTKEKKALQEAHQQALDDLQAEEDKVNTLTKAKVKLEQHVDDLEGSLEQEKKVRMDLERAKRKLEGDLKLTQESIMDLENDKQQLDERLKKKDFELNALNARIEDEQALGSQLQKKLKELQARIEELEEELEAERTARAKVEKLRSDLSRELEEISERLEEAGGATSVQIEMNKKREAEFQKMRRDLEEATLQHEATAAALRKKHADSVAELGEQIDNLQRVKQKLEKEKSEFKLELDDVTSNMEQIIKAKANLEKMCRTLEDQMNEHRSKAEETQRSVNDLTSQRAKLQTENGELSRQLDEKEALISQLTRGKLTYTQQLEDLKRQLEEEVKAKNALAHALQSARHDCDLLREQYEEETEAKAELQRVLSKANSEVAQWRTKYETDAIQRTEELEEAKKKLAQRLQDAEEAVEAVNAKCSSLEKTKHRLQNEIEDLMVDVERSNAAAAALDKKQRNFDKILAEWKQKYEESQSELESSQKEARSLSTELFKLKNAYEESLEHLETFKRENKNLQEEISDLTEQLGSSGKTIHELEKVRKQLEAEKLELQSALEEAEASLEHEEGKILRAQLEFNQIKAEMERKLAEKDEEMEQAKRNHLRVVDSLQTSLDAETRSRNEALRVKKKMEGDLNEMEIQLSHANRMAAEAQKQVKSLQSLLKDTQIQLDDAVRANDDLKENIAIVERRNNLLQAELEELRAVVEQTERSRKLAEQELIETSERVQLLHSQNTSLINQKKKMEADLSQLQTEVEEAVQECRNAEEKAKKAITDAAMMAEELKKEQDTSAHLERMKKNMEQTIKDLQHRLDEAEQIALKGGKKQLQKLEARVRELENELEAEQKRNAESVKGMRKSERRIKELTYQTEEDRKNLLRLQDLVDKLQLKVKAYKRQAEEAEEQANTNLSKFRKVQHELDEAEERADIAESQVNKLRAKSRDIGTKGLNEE
Chain of isolated smooth muscle myosin (P10587 whole entry): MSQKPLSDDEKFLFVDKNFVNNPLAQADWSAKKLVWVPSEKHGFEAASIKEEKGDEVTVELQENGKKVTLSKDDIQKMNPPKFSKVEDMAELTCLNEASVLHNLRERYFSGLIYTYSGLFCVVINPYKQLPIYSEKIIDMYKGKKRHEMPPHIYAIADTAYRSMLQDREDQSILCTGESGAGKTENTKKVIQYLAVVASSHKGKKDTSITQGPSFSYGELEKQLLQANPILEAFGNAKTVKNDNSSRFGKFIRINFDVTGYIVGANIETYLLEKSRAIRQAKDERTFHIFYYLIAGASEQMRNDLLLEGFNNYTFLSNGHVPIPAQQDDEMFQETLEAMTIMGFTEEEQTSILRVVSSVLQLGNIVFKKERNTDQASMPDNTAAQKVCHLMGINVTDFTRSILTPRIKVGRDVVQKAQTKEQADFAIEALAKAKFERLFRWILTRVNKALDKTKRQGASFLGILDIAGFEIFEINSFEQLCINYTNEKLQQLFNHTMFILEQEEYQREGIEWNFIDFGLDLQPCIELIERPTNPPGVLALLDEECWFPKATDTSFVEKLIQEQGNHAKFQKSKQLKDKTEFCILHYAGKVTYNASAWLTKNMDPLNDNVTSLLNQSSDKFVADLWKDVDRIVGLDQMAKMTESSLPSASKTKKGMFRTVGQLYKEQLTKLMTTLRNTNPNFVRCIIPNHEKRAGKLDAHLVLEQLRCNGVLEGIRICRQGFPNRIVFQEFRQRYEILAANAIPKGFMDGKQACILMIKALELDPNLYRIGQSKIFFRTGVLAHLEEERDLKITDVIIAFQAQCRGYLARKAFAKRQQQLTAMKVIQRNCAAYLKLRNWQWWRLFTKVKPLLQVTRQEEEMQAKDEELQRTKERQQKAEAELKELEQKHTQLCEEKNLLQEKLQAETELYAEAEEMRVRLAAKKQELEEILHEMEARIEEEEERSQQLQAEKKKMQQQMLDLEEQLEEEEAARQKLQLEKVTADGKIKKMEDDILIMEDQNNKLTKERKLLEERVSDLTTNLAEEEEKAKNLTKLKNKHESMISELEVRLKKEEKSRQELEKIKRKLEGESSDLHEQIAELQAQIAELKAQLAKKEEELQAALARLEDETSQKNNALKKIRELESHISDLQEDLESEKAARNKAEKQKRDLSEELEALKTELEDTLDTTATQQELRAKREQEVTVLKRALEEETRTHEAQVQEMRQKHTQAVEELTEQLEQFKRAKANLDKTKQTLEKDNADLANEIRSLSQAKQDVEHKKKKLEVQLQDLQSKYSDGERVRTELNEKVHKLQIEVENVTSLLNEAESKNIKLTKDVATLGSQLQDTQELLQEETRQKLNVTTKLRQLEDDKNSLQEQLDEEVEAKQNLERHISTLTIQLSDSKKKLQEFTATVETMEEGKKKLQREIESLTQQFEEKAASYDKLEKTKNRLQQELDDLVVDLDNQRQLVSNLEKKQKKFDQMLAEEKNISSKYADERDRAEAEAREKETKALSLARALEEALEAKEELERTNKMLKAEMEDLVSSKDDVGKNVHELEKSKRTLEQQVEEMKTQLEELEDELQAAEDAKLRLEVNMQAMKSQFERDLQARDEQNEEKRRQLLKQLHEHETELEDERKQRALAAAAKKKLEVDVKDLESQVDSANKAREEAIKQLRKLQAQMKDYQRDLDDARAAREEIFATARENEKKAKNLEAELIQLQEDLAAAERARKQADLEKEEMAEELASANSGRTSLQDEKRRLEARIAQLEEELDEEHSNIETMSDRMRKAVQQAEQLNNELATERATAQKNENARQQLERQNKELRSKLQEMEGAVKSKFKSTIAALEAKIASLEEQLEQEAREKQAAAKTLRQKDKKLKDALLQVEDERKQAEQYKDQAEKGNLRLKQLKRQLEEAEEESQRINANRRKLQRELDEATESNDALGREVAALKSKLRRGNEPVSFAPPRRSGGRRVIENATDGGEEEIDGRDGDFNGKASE

CC(=O)/C(C)=N/O [BDM, 2,3-butanedione monoxime]
IC50 ([1]; skeletal muscle myosin 2, binds weakly): ~5000 µM
Binding strength [2]: ~5 mM

Cc1ccc(S(=O)(=O)NCc2ccccc2)cc1 [BTS, N-Benzyl-p-toluenesulfonamide]
inhibits fast muscle skeletal myosin-2 times more stronger than slow skeletal muscle myosin-2, myocardial myosin-2 or non-muscle myosin 2 ([1]; selectivity among myosin 2 isoforms): 100 times
inhibition of platelet myosin 2 [3]: does not inhibit
Binding strength [2]: ~0.005 mM

O=C1c2ccncc2N=C2N(c3ccccc3)CCC12O (stereo not drawn) [Compound 174, 3a-Hydroxy-1-phenyl-1H,2H,3H,3aH,4H-pyrrolo[2,3-b]1,7-naphthyridin-4-one]
Maximum change of vital parameters (%) heart rate ([4]; 6 mg i.p.): 3%
Maximum change of vital parameters (%) oxygen saturation ([4]; 6 mg i.p.): −19%
Maximum change of vital parameters (%) respiratory frequency ([4]; 6 mg i.p.): −20%
Maximum change of vital parameters (%) blood flow ([4]; 6 mg i.p.): 4%
IC50 [5]: > 100 µM
% inhibition. complete cardiac [5]: 100%
inhibition at 5 µM [5]: 2%
inhibition at 50 µM [5]: 15%
% inhibition at 5 μM (or 10 μM if racemate) Smooth [6]: 1%
% inhibition at 50 μM (or 100 μM if racemate) Smooth [6]: 6%
% inhibition. complete Smooth [6]: 51%
IC50 [7]: > 100 µM
IC50 [8]: 10 µM
Inhibition (%) Dicty ([8]; maximum inhibition, compounds in IC50 range 1-11 μM): 20%
% inhibition. complete Dicty [8, 16]: 20%
inhibition at 5 µM [8]: 7%
inhibition at 50 µM [8]: 17%
IC50 [9]: 2 µM
inhibition at 5 µM [9]: 7%
inhibition at 50 µM [9]: 9%
IC50 [10]: 1 µM
inhibition at 5 µM [10]: 12%
inhibition at 50 µM [10]: 9%
Maximum change in isometric force at rear leg (%) ([11]; 6 mg i.p.): 25%
solubility [12]: ≥ 1000 µM
IC50 ([13]; concentration required for semi-maximal inhibition of ATPase): 15 µM
% inhibition. complete NM2B [13, 16]: 12%
inhibition at 5 µM ([13]; read-out: % inhibition at 5 μM (or 10 μM if racemate) NM2B, 5 μM (10 μM if racemate), ATPase activity): 2%
inhibition at 50 µM ([13]; read-out: % inhibition at 50 μM (or 100 μM if racemate) NM2B, 50 μM (100 μM if racemate), ATPase activity): 9%
% inhibition at 5 μM (or 10 μM if racemate) Skeletal [14]: 25%
% inhibition at 50 μM (or 100 μM if racemate) Skeletal [14]: 77%
IC50 [14]: 17 µM
% inhibition. complete Skeletal [14]: 100%

Cc1cc2c(s1)N=C1N(c3ccc(N4CCOCC4)cc3)CCC1(O)C2=O (stereo not drawn) [Compound 220, 9-Hydroxy-5-methyl-12-[4-(morpholin-4-yl)phenyl]-4-thia-2,12-diazatricyclo[7.3.0.0^3,7]dodeca-1,3(7),5-trien-8-one]
Maximum change of vital parameters (%) heart rate ([4]; 1 mg i.p.): 1%
Maximum change of vital parameters (%) oxygen saturation ([4]; 1 mg i.p.): −1%
Maximum change of vital parameters (%) respiratory frequency ([4]; 1 mg i.p.): −13%
Maximum change of vital parameters (%) blood flow ([4]; 1 mg i.p.): 8%
Maximum change of vital parameters (%) heart rate ([4]; 3 mg i.p.): 8%
Maximum change of vital parameters (%) oxygen saturation ([4]; 3 mg i.p.): −17%
Maximum change of vital parameters (%) respiratory frequency ([4]; 3 mg i.p.): −21%
Maximum change of vital parameters (%) blood flow ([4]; 3 mg i.p.): 19%
Maximum change of vital parameters (%) heart rate ([4]; 6 mg i.p.): 22%
Maximum change of vital parameters (%) oxygen saturation ([4]; 6 mg i.p.): −28%
Maximum change of vital parameters (%) respiratory frequency ([4]; 6 mg i.p.): −22%
Maximum change of vital parameters (%) blood flow ([4]; 6 mg i.p.): −1%
Maximum change of vital parameters (%) heart rate ([4]; 10 mg i.p.): 3%
Maximum change of vital parameters (%) oxygen saturation ([4]; 10 mg i.p.): −41%
Maximum change of vital parameters (%) respiratory frequency ([4]; 10 mg i.p.): −30%
Maximum change of vital parameters (%) blood flow ([4]; 10 mg i.p.): −3%
IC50 [5]: 5.6 µM
Inhibition (%) cardiac ([5]; maximum inhibition, compounds in IC50 range 3-6 μM): 39%
% inhibition. complete cardiac [5]: 39%
inhibition at 5 µM [5]: 17%
inhibition at 50 µM [5]: 37%
% inhibition at 5 μM (or 10 μM if racemate) Smooth [6]: 34%
% inhibition at 50 μM (or 100 μM if racemate) Smooth [6]: 54%
% inhibition. complete Smooth [6]: 51%
IC50 [7]: 2.3 µM
IC50 [8]: > 100 µM
inhibition at 5 µM [8]: 0%
inhibition at 50 µM [8]: 0%
IC50 [9]: 1.8 µM
Inhibition (%) NM2C ([9]; maximum inhibition, compounds in IC50 range 1-5 μM): 24%
% inhibition. complete NM2C [9, 16]: 24%
inhibition at 5 µM [9]: 19%
inhibition at 50 µM [9]: 21%
IC50 [10]: 0.93 µM
% inhibition. complete NM2A [10, 16]: 20%
inhibition at 5 µM [10]: 16%
inhibition at 50 µM [10]: 22%
Maximum change in isometric force at rear leg (%) ([11]; 1 mg i.p.): 19%
Maximum change in isometric force at rear leg (%) ([11]; 3 mg i.p.): 23%
Maximum change in isometric force at rear leg (%) ([11]; 6 mg i.p.): 42%
solubility [12]: 710 µM
% inhibition at 5 μM (or 10 μM if racemate) Skeletal [14]: 86%
% inhibition at 50 μM (or 100 μM if racemate) Skeletal [14]: 94%
IC50 [14]: 0.49 µM
% inhibition. complete Skeletal [14]: 96%

Cc1ccc2c(c1)C(=O)[C@]1(O)CCN(c3ccccc3)C1=N2 [blebbistatin]
inhibition of myosin 1, myosin 5, and myosin 10 [15]: does not inhibit
